Results on 4 compounds are retold here after ChEMBL document CHEMBL3621100, “Discovery of Novel Class I Histone Deacetylase Inhibitors with Promising in Vitro and in Vivo Antitumor Activities” (J Med Chem, 2015).

Data set [1] has as its target Histone deacetylase 9 (Homo sapiens, UniProt Q9UKV0). Briefly: Inhibition of recombinant human HDAC9 after 60 mins by fluorescence assay.
Data set [2] deals with T1, Histone deacetylase 7 (Homo sapiens, UniProt Q8WUI4).
T1 sequence (Q8WUI4 whole entry): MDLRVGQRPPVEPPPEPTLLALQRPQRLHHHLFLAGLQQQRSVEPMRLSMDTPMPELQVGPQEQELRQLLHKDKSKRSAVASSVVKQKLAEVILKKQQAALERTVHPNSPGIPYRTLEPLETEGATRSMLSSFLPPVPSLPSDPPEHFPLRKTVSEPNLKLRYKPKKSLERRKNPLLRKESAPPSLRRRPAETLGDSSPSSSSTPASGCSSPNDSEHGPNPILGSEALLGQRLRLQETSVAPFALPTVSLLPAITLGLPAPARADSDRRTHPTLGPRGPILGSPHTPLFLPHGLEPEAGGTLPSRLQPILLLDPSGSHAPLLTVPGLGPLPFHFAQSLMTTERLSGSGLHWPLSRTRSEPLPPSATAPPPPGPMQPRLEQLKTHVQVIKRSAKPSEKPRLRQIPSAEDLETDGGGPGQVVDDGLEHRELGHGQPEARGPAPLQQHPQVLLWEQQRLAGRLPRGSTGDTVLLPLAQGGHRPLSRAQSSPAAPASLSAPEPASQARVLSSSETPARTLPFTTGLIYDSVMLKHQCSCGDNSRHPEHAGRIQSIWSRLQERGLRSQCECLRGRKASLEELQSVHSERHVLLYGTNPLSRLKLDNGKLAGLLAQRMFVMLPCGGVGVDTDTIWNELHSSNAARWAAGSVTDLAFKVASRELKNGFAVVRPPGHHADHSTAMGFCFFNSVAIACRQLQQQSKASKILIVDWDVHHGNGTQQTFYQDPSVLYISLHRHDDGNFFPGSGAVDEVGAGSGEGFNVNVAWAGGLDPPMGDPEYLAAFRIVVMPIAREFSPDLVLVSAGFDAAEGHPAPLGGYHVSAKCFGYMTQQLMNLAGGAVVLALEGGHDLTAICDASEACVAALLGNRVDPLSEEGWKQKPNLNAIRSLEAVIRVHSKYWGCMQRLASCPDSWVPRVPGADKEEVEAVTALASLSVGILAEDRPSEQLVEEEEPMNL
Briefly: Inhibition of recombinant human HDAC7 after 60 mins by fluorescence assay.

The nature of data set [3]: Antiproliferative activity against human WI38 cells after 72 hrs by CCK8 assay. It is filed as cell-based, WI-38.
The target of data set [4] is Histone deacetylase 5 (Homo sapiens, UniProt Q9UQL6). Briefly: Inhibition of recombinant human HDAC5 after 60 mins by fluorescence assay.
Sequence of Histone deacetylase 5 (Q9UQL6 whole entry): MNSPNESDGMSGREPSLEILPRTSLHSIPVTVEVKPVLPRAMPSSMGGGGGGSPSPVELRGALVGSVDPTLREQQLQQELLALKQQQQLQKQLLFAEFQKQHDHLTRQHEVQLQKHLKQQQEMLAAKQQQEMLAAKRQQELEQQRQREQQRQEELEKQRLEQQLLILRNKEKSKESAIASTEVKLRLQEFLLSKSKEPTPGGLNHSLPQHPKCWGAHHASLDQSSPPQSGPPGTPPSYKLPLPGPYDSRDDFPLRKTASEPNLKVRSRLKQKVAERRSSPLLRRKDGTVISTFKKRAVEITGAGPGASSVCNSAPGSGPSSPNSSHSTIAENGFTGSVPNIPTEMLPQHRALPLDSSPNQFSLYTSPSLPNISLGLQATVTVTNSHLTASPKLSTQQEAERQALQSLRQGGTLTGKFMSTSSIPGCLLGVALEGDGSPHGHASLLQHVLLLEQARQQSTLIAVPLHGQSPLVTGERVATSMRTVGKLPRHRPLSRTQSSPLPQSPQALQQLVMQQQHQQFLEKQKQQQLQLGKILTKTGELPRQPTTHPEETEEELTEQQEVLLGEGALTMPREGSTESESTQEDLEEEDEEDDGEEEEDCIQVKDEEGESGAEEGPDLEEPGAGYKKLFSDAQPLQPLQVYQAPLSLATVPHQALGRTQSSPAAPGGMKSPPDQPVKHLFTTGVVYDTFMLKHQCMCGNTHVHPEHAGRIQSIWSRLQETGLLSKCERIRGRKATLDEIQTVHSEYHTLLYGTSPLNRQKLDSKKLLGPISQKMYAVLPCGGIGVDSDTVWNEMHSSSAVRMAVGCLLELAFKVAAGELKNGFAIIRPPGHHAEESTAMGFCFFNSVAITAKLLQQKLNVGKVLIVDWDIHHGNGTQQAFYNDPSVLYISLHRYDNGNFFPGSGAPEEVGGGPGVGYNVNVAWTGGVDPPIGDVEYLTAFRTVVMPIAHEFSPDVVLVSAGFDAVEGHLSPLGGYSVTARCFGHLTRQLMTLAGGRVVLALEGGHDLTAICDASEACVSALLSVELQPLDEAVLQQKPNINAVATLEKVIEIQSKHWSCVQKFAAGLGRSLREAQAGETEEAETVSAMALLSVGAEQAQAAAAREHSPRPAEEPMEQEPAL
The target in data set [5] is T2, Histone deacetylase 11 (Homo sapiens, UniProt Q96DB2).
T2 sequence (Q96DB2 whole entry): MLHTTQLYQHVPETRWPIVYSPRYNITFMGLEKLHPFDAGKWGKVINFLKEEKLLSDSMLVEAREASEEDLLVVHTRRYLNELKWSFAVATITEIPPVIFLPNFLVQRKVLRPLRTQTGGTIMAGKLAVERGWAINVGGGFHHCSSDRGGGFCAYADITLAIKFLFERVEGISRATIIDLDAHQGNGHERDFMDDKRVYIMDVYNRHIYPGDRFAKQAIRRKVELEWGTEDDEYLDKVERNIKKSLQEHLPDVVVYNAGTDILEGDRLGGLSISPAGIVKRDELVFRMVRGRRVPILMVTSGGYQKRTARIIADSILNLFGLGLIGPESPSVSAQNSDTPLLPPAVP
Briefly: Inhibition of recombinant human HDAC11 after 60 mins by fluorescence assay.

Data set [6] has as its target Histone deacetylase 1 (Homo sapiens, UniProt Q13547). Briefly: Inhibition of recombinant human HDAC1 after 60 mins by fluorescence assay.
Data set [7] in a line: Antiproliferative activity against human HLF cells after 72 hrs by CCK8 assay. The format is cell-based. (Tetrazolium assays rely on reduction of a dye to a coloured formazan, in cell work by metabolically active cells.)
The target of data set [8] is Histone deacetylase 4 (Homo sapiens, UniProt P56524). Briefly: Inhibition of recombinant human HDAC4 after 60 mins by fluorescence assay.
Sequence of Histone deacetylase 4 (P56524 whole entry): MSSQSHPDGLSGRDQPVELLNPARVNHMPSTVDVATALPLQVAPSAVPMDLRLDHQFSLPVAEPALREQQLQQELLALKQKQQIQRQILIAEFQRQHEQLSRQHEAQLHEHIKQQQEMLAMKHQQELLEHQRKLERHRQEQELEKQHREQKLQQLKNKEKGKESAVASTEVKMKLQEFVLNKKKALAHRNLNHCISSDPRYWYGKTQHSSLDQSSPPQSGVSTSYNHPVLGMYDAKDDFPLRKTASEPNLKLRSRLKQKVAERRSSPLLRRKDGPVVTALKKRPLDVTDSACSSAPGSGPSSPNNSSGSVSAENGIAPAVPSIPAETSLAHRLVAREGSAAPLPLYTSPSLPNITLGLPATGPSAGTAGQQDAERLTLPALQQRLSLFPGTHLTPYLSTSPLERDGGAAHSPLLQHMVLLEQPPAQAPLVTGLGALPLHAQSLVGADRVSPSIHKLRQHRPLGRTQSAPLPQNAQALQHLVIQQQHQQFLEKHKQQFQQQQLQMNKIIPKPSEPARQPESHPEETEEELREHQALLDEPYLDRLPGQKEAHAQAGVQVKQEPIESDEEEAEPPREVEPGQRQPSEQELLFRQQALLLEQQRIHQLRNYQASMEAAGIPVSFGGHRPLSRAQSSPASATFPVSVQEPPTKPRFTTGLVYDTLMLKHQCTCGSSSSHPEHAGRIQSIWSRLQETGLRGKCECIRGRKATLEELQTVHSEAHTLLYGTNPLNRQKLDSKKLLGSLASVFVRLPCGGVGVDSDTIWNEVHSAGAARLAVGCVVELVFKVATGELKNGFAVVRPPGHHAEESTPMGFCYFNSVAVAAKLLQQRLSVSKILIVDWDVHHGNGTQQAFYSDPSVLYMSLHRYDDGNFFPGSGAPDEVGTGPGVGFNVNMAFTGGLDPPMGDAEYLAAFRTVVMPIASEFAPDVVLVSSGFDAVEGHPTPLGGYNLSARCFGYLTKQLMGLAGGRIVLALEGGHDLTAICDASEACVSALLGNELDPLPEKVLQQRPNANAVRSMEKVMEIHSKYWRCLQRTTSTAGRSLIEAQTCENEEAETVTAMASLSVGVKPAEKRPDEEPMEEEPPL
Data set [9] concerns the target T3, Polyamine deacetylase HDAC10 (Homo sapiens, UniProt Q969S8).
T3 sequence (Q969S8 whole entry): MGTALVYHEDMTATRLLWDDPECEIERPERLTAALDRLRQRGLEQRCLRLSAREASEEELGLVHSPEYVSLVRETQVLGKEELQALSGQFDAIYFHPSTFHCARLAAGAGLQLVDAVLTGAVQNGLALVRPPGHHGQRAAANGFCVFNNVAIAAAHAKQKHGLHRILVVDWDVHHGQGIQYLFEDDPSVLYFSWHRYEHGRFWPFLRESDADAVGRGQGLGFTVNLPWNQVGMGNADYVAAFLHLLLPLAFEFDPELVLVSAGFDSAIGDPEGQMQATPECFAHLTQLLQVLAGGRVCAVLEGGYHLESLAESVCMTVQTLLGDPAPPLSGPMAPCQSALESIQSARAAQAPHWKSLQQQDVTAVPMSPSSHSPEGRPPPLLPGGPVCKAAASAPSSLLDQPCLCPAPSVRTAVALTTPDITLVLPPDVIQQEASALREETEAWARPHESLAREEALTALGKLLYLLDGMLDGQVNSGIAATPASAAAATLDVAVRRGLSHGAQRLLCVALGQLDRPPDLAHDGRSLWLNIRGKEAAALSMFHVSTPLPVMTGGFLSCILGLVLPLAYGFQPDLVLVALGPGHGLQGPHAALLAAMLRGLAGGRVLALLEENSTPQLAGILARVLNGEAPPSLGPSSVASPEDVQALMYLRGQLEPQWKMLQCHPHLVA
Briefly: Inhibition of recombinant human HDAC10 after 60 mins by fluorescence assay.

The test system of data set [10] is U-937. Briefly: Antiproliferative activity against human U937 cells after 72 hrs by CCK8 assay. It is filed as functional.
A short description of data set [11]: Antiproliferative activity against human MOLT4 cells after 72 hrs by CCK8 assay. The format is functional, MOLT-4.
The subject of data set [12] is DU-145. Briefly: Antiproliferative activity against human DU145 cells after 72 hrs by CCK8 assay. The format is functional.
Data set [13] concerns the target T4, Protein deacetylase HDAC6 (Homo sapiens, UniProt Q9UBN7).
T4 sequence (Q9UBN7 whole entry): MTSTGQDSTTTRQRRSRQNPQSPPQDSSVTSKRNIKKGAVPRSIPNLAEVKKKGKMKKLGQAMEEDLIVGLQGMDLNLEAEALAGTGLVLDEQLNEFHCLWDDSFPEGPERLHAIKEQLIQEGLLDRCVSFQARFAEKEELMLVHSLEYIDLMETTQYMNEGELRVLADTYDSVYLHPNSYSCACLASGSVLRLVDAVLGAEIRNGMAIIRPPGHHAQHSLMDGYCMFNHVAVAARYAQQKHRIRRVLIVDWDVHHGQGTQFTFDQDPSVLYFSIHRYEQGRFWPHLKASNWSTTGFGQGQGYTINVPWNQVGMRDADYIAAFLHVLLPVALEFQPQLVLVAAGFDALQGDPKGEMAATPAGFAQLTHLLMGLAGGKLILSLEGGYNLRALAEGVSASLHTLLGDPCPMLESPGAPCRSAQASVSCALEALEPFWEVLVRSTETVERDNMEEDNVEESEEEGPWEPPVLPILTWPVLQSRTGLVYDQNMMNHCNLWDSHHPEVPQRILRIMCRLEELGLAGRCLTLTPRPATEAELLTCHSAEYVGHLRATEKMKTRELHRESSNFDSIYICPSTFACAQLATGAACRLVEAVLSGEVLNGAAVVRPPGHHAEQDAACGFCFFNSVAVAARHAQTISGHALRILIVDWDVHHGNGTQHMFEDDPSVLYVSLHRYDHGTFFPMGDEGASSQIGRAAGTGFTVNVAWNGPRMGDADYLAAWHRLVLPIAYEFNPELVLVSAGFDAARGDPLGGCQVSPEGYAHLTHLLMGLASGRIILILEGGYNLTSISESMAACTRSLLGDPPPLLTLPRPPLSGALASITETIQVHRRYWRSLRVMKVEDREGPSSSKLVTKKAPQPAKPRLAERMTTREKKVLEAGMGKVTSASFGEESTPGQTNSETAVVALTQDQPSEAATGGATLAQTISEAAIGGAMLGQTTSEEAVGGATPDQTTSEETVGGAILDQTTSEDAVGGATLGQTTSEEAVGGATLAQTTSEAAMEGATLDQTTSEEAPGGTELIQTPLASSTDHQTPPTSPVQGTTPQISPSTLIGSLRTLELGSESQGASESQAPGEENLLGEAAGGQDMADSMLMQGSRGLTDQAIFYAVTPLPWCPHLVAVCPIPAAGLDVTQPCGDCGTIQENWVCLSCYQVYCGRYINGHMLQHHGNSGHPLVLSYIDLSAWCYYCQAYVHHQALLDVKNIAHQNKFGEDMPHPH
Briefly: Inhibition of recombinant human HDAC6 after 60 mins by fluorescence assay.

Data set [14] concerns the target Histone deacetylase 2 (Homo sapiens, UniProt Q92769). Briefly: Inhibition of recombinant human HDAC2 after 60 mins by fluorescence assay.
In data set [15] the target is T5, Histone deacetylase 8 (Homo sapiens, UniProt Q9BY41).
T5 sequence (Q9BY41 whole entry): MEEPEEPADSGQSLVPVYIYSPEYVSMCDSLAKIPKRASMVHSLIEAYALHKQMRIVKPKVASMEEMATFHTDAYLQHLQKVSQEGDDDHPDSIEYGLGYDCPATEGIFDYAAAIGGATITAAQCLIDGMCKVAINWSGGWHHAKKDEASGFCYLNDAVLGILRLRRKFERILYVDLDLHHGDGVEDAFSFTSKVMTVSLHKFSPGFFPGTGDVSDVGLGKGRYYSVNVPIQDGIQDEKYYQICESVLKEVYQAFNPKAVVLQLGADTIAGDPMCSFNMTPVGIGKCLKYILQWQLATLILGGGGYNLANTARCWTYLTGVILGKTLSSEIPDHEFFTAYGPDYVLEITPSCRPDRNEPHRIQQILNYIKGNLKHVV
Briefly: Inhibition of recombinant human HDAC8 after 60 mins by fluorescence assay.

Sequence of Histone deacetylase 9 (Q9UKV0 whole entry): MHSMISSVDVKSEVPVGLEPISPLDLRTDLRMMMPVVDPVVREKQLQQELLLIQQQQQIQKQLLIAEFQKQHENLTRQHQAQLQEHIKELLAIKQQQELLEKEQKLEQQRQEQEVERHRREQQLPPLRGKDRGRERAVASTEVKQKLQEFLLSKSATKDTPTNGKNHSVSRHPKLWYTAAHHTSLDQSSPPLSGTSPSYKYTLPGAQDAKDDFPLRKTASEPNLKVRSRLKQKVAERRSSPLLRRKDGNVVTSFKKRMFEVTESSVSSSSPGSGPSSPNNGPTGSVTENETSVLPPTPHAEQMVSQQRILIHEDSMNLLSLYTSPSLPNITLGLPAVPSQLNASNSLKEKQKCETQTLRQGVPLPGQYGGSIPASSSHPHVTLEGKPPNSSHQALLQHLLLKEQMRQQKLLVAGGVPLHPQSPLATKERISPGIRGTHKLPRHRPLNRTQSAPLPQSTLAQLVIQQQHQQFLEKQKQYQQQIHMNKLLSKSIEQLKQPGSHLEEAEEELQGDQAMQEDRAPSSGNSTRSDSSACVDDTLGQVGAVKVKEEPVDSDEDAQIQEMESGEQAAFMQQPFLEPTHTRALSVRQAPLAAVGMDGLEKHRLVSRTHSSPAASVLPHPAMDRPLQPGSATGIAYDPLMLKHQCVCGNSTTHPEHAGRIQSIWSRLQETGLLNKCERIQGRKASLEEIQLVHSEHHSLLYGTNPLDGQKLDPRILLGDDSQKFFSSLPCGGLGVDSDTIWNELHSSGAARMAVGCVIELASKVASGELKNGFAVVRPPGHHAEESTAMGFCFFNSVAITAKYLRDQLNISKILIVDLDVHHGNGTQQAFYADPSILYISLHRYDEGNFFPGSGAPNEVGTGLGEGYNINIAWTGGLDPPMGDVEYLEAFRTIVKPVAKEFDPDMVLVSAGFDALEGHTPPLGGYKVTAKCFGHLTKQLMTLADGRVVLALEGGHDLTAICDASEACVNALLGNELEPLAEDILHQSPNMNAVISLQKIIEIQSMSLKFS
Sequence of Histone deacetylase 1 (Q13547 whole entry): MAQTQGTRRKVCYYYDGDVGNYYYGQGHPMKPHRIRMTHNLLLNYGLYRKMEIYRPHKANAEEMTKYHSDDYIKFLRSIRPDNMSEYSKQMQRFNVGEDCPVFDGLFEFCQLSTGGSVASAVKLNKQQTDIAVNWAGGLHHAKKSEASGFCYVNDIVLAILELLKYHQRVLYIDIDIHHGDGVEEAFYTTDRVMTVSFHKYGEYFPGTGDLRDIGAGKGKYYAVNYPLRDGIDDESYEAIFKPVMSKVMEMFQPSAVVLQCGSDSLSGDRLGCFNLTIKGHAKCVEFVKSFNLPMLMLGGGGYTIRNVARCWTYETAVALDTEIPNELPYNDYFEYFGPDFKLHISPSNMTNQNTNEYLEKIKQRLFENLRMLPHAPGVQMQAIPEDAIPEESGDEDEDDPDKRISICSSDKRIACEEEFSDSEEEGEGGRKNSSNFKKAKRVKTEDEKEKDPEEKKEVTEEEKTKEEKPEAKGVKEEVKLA
Sequence of Histone deacetylase 2 (Q92769 whole entry): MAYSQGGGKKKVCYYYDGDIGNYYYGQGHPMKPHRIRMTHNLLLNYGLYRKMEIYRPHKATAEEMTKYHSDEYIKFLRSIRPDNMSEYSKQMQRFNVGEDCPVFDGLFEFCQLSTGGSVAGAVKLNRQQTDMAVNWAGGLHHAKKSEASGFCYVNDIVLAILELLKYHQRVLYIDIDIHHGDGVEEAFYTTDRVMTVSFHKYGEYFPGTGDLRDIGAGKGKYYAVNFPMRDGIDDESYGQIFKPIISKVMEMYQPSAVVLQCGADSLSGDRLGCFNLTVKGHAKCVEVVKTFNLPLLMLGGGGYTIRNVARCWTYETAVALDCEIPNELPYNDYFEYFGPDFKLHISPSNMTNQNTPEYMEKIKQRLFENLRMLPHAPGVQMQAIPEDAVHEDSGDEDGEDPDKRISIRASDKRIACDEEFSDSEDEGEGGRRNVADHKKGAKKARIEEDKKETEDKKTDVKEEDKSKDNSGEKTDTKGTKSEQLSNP

On to `C/C=C1\NC(=O)[C@H]2CSSCC/C=C/[C@H](CC(=O)N[C@H](C(C)C)C(=O)N2)OC(=O)[C@H](C(C)C)NC1=O` [ROMIDEPSIN], for which the concentration for half-maximal inhibition (IC50) in [1] was greater than 10000 nM; in data set [2], greater than 10000 nM; in data set [4], greater than 10000 nM; in data set [5], greater than 10000 nM; in [6] it was 1050 nM; in [8], greater than 10000 nM. Besides, the half-maximal inhibitory concentration (IC50) in [9] is 11 nM. The 50% growth inhibitory concentration (GI50) at 72 h in data set [3] is 5.39 nM; in data set [7] it was 4.89 nM.

For `O=C(CCCCCCC(=O)Nc1ccccc1)NO` [VORINOSTAT], the results for the GI50 in [10], in [11] and in data set [12] were 1460 nM, 542 nM and 1590 nM, respectively. Further, the 50% growth inhibitory concentration (GI50) at 72 h in data set [3] came to 6080 nM; in [7] it was 1650 nM.

In the case of `C/C=C1\NC(=O)C(CS)NC(=O)[C@@H](C(C)C)NC(=O)C[C@@H](/C=C/CCS)OC(=O)[C@H](C(C)C)NC1=O` (single isomer, unassigned) [FR-135313], the 50% inhibitory concentration (IC50) is greater than 10000 nM in [1]; 1760 nM in data set [2]; greater than 10000 nM in data set [4]; 2360 nM in data set [5]; 149 nM in data set [13]; 9570 nM in data set [8]. The results for the IC50 in [14], in data set [15] and in data set [9] were 1.4 nM, 25 nM and 3.9 nM, respectively.

In the case of `CCCCCCCC(=O)SCC/C=C/[C@@H]1CC(=O)NCc2nc(cs2)C2=N[C@@](C)(CS2)C(=O)N[C@@H](C(C)C)C(=O)O1` [LARGAZOLE], the half-maximal inhibitory concentration (IC50) in data set [1] was greater than 10000 nM; in data set [2], greater than 10000 nM; in [4], greater than 10000 nM; in data set [5] it was greater than 10000 nM; in [6] it was 69.8 nM; in data set [8], greater than 10000 nM. Further, the IC50 is 1010 nM in data set [14], greater than 10000 nM in data set [15] and 2210 nM in data set [9]. The GI50 came to 16.8 nM in [10] (Homo sapiens, U-937, 72 h); 16.2 nM in data set [11] (Homo sapiens, MOLT-4, 72 h); 11 nM in data set [12] (Homo sapiens, DU-145, 72 h). The GI50 at 72 h is 82.5 nM in [3] and 39.7 nM in [7].

By IC50 is commonly meant the concentration that gives 50% inhibition. The term GI50 denotes the concentration giving 50% growth inhibition. Read a low GI50 as greater sensitivity of the cells.
